Source: paper PMC5218480 (PLoS ONE, 2017)

Test system: MV-4-11 cells
Test: Gene expression microarray analysis (Affymetrix PrimeView) and GSEA
Type: cell-based, human
Design: RFU PODN (11730768_x_at) / Fold change /veh PODN (11730768_x_at) / RFU LINC00158 (11744669_a_at) / Fold change /veh LINC00158 (11744669_a_at) / RFU DUSP10 (11751237_a_at) / Fold change /veh DUSP10 (11751237_a_at) / RFU ID3 (11757404_x_at) / Fold change /veh ID3 (11757404_x_at) / RFU PLEKHG5 (11737974_s_at) / Fold change /veh PLEKHG5 (11737974_s_at) / RFU LRRC4B (11730491_at) / Fold change /veh LRRC4B (11730491_at) / RFU GIMAP4 (11747438_a_at) / Fold change /veh GIMAP4 (11747438_a_at) / RFU KRT8 (11758183_x_at) / Fold change /veh KRT8 (11758183_x_at) / RFU CNN1 (11734310_a_at) / Fold change /veh CNN1 (11734310_a_at) / RFU VPS37D (11726825_at) / Fold change /veh VPS37D (11726825_at) / RFU C10orf10 (11716522_x_at) / Fold change /veh C10orf10 (11716522_x_at) / RFU KIR2DL2 /// KIR2DL4 /// KIR2DL5A /// KIR2DL5B /// KIR2DS1 /// KIR2DS2 /// KIR2DS3 /// KIR2DS4 /// KIR3DL3 /// KIR3DL3 /// KIR3DS1 (11738374_at) / Fold change /veh KIR2DL2 /// KIR2DL4 /// KIR2DL5A /// KIR2DL5B /// KIR2DS1 /// KIR2DS2 /// KIR2DS3 /// KIR2DS4 /// KIR3DL3 /// KIR3DL3 /// KIR3DS1 (11738374_at) / RFU C1QL1 (11718748_at) / Fold change /veh C1QL1 (11718748_at) / RFU TMPRSS4 (11747572_a_at) / Fold change /veh TMPRSS4 (11747572_a_at) / RFU HAMP (11756126_x_at) / Fold change /veh HAMP (11756126_x_at) / RFU RNFT2 (11725882_a_at) / Fold change /veh RNFT2 (11725882_a_at) / RFU NR4A2 (11747474_a_at) / Fold change /veh NR4A2 (11747474_a_at) / RFU ABCC12 (11746883_a_at) / Fold change /veh ABCC12 (11746883_a_at) / RFU TMEM136 (11760407_x_at) / Fold change /veh TMEM136 (11760407_x_at) / RFU CLDN22 /// WWC2 (11732394_at) / Fold change /veh CLDN22 /// WWC2 (11732394_at) / RFU HLA-DPB1 (11760878_x_at) / Fold change /veh HLA-DPB1 (11760878_x_at) / RFU SPINT1 (11716480_a_at) / Fold change /veh SPINT1 (11716480_a_at) / RFU GAP43 (11754022_s_at) / Fold change /veh GAP43 (11754022_s_at) / RFU A4GNT (11735810_at) / Fold change /veh A4GNT (11735810_at) / RFU PRB3 (11715151_x_at) / Fold change /veh PRB3 (11715151_x_at) / RFU TUBB4B (11761932_at) / Fold change /veh TUBB4B (11761932_at) / RFU CAPN14 (11732068_a_at) / Fold change /veh CAPN14 (11732068_a_at) / RFU TMCC2 (11721928_a_at) / Fold change /veh TMCC2 (11721928_a_at) / RFU IRGQ (11745062_a_at) / Fold change /veh IRGQ (11745062_a_at) / RFU FAM174B (11720279_a_at) / Fold change /veh FAM174B (11720279_a_at) / RFU TMPRSS4 (11748680_a_at) / Fold change /veh TMPRSS4 (11748680_a_at) / RFU FAM212B (11763350_a_at) / Fold change /veh FAM212B (11763350_a_at) / RFU PLEKHG5 (11743358_a_at) / Fold change /veh PLEKHG5 (11743358_a_at) / RFU ZSCAN30 (11745921_a_at) / Fold change /veh ZSCAN30 (11745921_a_at) / RFU CMKLR1 (11741424_a_at) / Fold change /veh CMKLR1 (11741424_a_at) / RFU LOC101060620 /// MAPK8IP1 (11723275_at) / Fold change /veh LOC101060620 /// MAPK8IP1 (11723275_at) / RFU SPTSSB (11747773_x_at) / Fold change /veh SPTSSB (11747773_x_at) / RFU PRSS12 (11739890_at) / Fold change /veh PRSS12 (11739890_at) / RFU BIN1 (11741810_x_at) / Fold change /veh BIN1 (11741810_x_at) / RFU WNT11 (11732464_a_at) / Fold change /veh WNT11 (11732464_a_at) / RFU C10orf10 (11716521_a_at) / Fold change /veh C10orf10 (11716521_a_at) / RFU C5orf56 (11738089_at) / Fold change /veh C5orf56 (11738089_at) / RFU CYB561 (11721691_x_at) / Fold change /veh CYB561 (11721691_x_at) / RFU ANKRD19P (11752326_a_at) / Fold change /veh ANKRD19P (11752326_a_at) / RFU OR2T12 /// OR2T33 /// OR2T8 (11738714_s_at) / Fold change /veh OR2T12 /// OR2T33 /// OR2T8 (11738714_s_at) / RFU VCAN (11748164_a_at) / Fold change /veh VCAN (11748164_a_at) / RFU JSRP1 (11732532_at) / Fold change /veh JSRP1 (11732532_at) / RFU KRTAP10-11 (11738290_x_at) / Fold change /veh KRTAP10-11 (11738290_x_at) / RFU MYO3A (11730013_a_at) / Fold change /veh MYO3A (11730013_a_at) / RFU EBF3 (11725865_a_at) / Fold change /veh EBF3 (11725865_a_at) / RFU CAMK2N1 (11719241_x_at) / Fold change /veh CAMK2N1 (11719241_x_at) / RFU C5orf56 (11738088_a_at) / Fold change /veh C5orf56 (11738088_a_at) / RFU OLFML3 (11715873_a_at) / Fold change /veh OLFML3 (11715873_a_at) / RFU LOC100653217 /// NTM (11731650_a_at) / Fold change /veh LOC100653217 /// NTM (11731650_a_at) / RFU MAPK11 (11762145_a_at) / Fold change /veh MAPK11 (11762145_a_at) / RFU FIZ1 (11724087_x_at) / Fold change /veh FIZ1 (11724087_x_at) / RFU OASL (11726364_x_at) / Fold change /veh OASL (11726364_x_at) / RFU SOX15 (11748057_x_at) / Fold change /veh SOX15 (11748057_x_at) / RFU CD79A (11719716_a_at) / Fold change /veh CD79A (11719716_a_at) / RFU HIST1H1D (11736915_at) / Fold change /veh HIST1H1D (11736915_at) / RFU CASKIN2 (11723855_a_at) / Fold change /veh CASKIN2 (11723855_a_at) / RFU LOC730098 (11760151_x_at) / Fold change /veh LOC730098 (11760151_x_at) / RFU OR4N2 (11742367_at) / Fold change /veh OR4N2 (11742367_at) / RFU PRRT2 (11749266_a_at) / Fold change /veh PRRT2 (11749266_a_at) / RFU SNX32 (11753110_a_at) / Fold change /veh SNX32 (11753110_a_at) / RFU CDHR5 (11726645_a_at) / Fold change /veh CDHR5 (11726645_a_at) / RFU RCAN1 (11760418_a_at) / Fold change /veh RCAN1 (11760418_a_at) / RFU FAM167A (11723789_a_at) / Fold change /veh FAM167A (11723789_a_at) / RFU FAM26E (11764081_at) / Fold change /veh FAM26E (11764081_at) / RFU ISYNA1 (11749810_s_at) / Fold change /veh ISYNA1 (11749810_s_at) / RFU ACY1 (11761880_at) / Fold change /veh ACY1 (11761880_at) / RFU 11764098_at / Fold change /veh 11764098_at / RFU SAMD14 (11745864_x_at) / Fold change /veh SAMD14 (11745864_x_at) / RFU NPB (11741838_a_at) / Fold change /veh NPB (11741838_a_at) / RFU TMPRSS6 (11731388_a_at) / Fold change /veh TMPRSS6 (11731388_a_at) / RFU KRTAP10-2 (11738614_at) / Fold change /veh KRTAP10-2 (11738614_at) / RFU ARHGAP8 /// PRR5-ARHGAP8 (11727945_x_at) / Fold change /veh ARHGAP8 /// PRR5-ARHGAP8 (11727945_x_at) / RFU KRTAP5-7 /// NADSYN1 (11734609_at) / Fold change /veh KRTAP5-7 /// NADSYN1 (11734609_at) / RFU RASL12 (11751679_a_at) / Fold change /veh RASL12 (11751679_a_at) / RFU CDKN2B (11736163_a_at) / Fold change /veh CDKN2B (11736163_a_at) / RFU PRF1 (11729649_at) / Fold change /veh PRF1 (11729649_at) / RFU, ZNF638 /// ZNF638-IT1 / Fold change vs veh, ZNF638 /// ZNF638-IT1 / RFU, PANK3 / Fold change vs veh, PANK3 / RFU, SH3YL1 / Fold change vs veh, SH3YL1 / RFU, ZEB2 / Fold change vs veh, ZEB2 / RFU, NRIP1 / Fold change vs veh, NRIP1 / RFU, PTTG1IP / Fold change vs veh, PTTG1IP / RFU, CAPN2 / Fold change vs veh, CAPN2 / RFU, MED14 / Fold change vs veh, MED14 / RFU, SNORA58 / Fold change vs veh, SNORA58 / RFU, C1orf63 / Fold change vs veh, C1orf63 / RFU, LRRFIP1 / Fold change vs veh, LRRFIP1 / RFU, NDUFAF7 / Fold change vs veh, NDUFAF7 / RFU, SLC12A2 / Fold change vs veh, SLC12A2 / RFU, IBTK / Fold change vs veh, IBTK / RFU, ESF1 / Fold change vs veh, ESF1 / Fold change vs veh, TMEM50B / RFU, TAOK1 / Fold change vs veh, TAOK1 / RFU, ACBD3 / Fold change vs veh, ACBD3 / RFU, TMA16 / Fold change vs veh, TMA16 / RFU, RWDD3 / Fold change vs veh, RWDD3 / RFU, BCAT1 / Fold change vs veh, BCAT1 / RFU, EDEM3 / Fold change vs veh, EDEM3 / RFU, TMEM33 / Fold change vs veh, TMEM33 / RFU, WDR75 / Fold change vs veh, WDR75 / RFU, AHCTF1 / Fold change vs veh, AHCTF1 / RFU, TFRC / Fold change vs veh, TFRC / RFU, ZDHHC17 / Fold change vs veh, ZDHHC17 / RFU, NOM1 / Fold change vs veh, NOM1 / RFU, ARL8B / Fold change vs veh, ARL8B / RFU, ZBTB11 / Fold change vs veh, ZBTB11 / RFU, TAMM41 / Fold change vs veh, TAMM41 / RFU, KIAA1704 /// LOC100996395 / Fold change vs veh, KIAA1704 /// LOC100996395 / RFU, ING1 / Fold change vs veh, ING1 / RFU, TRMT61B / Fold change vs veh, TRMT61B / RFU, FUBP3 / Fold change vs veh, FUBP3 / RFU, TP53 / Fold change vs veh, TP53 / RFU, TNKS2 / Fold change vs veh, TNKS2 / RFU, ZFP14 / Fold change vs veh, ZFP14 / RFU, ACTR2 / Fold change vs veh, ACTR2 / RFU, PPP3R1 / Fold change vs veh, PPP3R1 / RFU, PIK3R1 / Fold change vs veh, PIK3R1 / RFU, HNRNPA1 / Fold change vs veh, HNRNPA1 / RFU, RNF170 / Fold change vs veh, RNF170 / RFU, ZNF28 / Fold change vs veh, ZNF28 / RFU, RNGTT / Fold change vs veh, RNGTT / RFU, OGT / Fold change vs veh, OGT / RFU, BRD1 / Fold change vs veh, BRD1 / RFU, MARS / Fold change vs veh, MARS / RFU, ZNF655 / Fold change vs veh, ZNF655 / RFU, FAHD1 / Fold change vs veh, FAHD1 / RFU, BDP1 / Fold change vs veh, BDP1 / RFU, LRRCC1 / Fold change vs veh, LRRCC1 / RFU, ARID1A / Fold change vs veh, ARID1A / RFU, ZNF146 / Fold change vs veh, ZNF146 / RFU, ZNF330 / Fold change vs veh, ZNF330 / RFU, GPN3 / Fold change vs veh, GPN3 / RFU, C9orf123 / Fold change vs veh, C9orf123 / RFU, N4BP2L2 / Fold change vs veh, N4BP2L2 / RFU, ARFIP1 / Fold change vs veh, ARFIP1 / RFU, FAM179B / Fold change vs veh, FAM179B / RFU, BCL10 / Fold change vs veh, BCL10 / RFU, UHRF1BP1L / Fold change vs veh, UHRF1BP1L / RFU, BET1 / Fold change vs veh, BET1 / RFU, CNOT2 / Fold change vs veh, CNOT2 / RFU, ZNF268 / Fold change vs veh, ZNF268 / Fold change vs veh, ZNF507 / RFU, DGCR2 / Fold change vs veh, DGCR2 / RFU, WDSUB1 / Fold change vs veh, WDSUB1 / Fold change vs veh, HSP90B1 /// MIR3652 / RFU, ADSS / Fold change vs veh, ADSS / RFU, GK / Fold change vs veh, GK / RFU, ZNF148 / Fold change vs veh, ZNF148 / RFU, TAF9 / Fold change vs veh, TAF9 / RFU, SLC1A5 / Fold change vs veh, SLC1A5 / RFU, SLMO2 / Fold change vs veh, SLMO2 / RFU, ABCC4 / Fold change vs veh, ABCC4 / RFU, LOC101060439 /// RAP1B / Fold change vs veh, LOC101060439 /// RAP1B / RFU, RFX7 / Fold change vs veh, RFX7 / RFU, GTPBP10 / Fold change vs veh, GTPBP10 / RFU, CNEP1R1 / Fold change vs veh, CNEP1R1 / RFU, BIVM-ERCC5 /// ERCC5 / Fold change vs veh, BIVM-ERCC5 /// ERCC5 / RFU, ILF3 / Fold change vs veh, ILF3 / RFU 11762660_at / Fold change /veh 11762660_at / RFU VCAN (11757783_s_at) / Fold change /veh VCAN (11757783_s_at) / RFU DDX43 (11728927_at) / Fold change /veh DDX43 (11728927_at) / RFU KRT8 (11758188_x_at) / Fold change /veh KRT8 (11758188_x_at) / RFU NKD1 (11759106_at) / Fold change /veh NKD1 (11759106_at) / RFU SRD5A1 (11742802_a_at) / Fold change /veh SRD5A1 (11742802_a_at) / RFU TPSAB1 /// TPSB2 (11721975_s_at) / Fold change /veh TPSAB1 /// TPSB2 (11721975_s_at) / RFU GSTM3 (11746129_a_at) / Fold change /veh GSTM3 (11746129_a_at) / RFU IL23R (11737362_x_at) / Fold change /veh IL23R (11737362_x_at) / RFU TMEM51 (11727254_a_at) / Fold change /veh TMEM51 (11727254_a_at) / RFU PIWIL2 (11732686_x_at) / Fold change /veh PIWIL2 (11732686_x_at) / RFU ORM1 (11744905_x_at) / Fold change /veh ORM1 (11744905_x_at) / RFU CCDC152 (11743942_at) / Fold change /veh CCDC152 (11743942_at) / RFU ECM1 (11717891_a_at) / Fold change /veh ECM1 (11717891_a_at) / RFU IL23R (11748794_a_at) / Fold change /veh IL23R (11748794_a_at) / RFU TNFAIP8L3 (11732012_x_at) / Fold change /veh TNFAIP8L3 (11732012_x_at) / RFU MBOAT4 (11741988_at) / Fold change /veh MBOAT4 (11741988_at) / RFU 11764193_at / Fold change /veh 11764193_at / RFU TMEM53 (11763286_at) / Fold change /veh TMEM53 (11763286_at) / RFU MAGEB2 (11727129_at) / Fold change /veh MAGEB2 (11727129_at) / RFU TMEM200A (11744735_a_at) / Fold change /veh TMEM200A (11744735_a_at) / RFU CCDC152 (11751479_a_at) / Fold change /veh CCDC152 (11751479_a_at) / RFU FAM211A (11726209_a_at) / Fold change /veh FAM211A (11726209_a_at) / RFU RGS16 (11746705_a_at) / Fold change /veh RGS16 (11746705_a_at) / RFU VCAN (11755009_s_at) / Fold change /veh VCAN (11755009_s_at) / RFU RHOB (11743442_s_at) / Fold change /veh RHOB (11743442_s_at) / RFU RGS16 (11720943_a_at) / Fold change /veh RGS16 (11720943_a_at) / RFU RGS16 (11720944_at) / Fold change /veh RGS16 (11720944_at) / RFU, VPS4B / Fold change vs veh, VPS4B / RFU, CREB1 / Fold change vs veh, CREB1 / RFU, DNAJC13 / Fold change vs veh, DNAJC13 / RFU, GNAQ / Fold change vs veh, GNAQ / RFU, CDK5R1 / Fold change vs veh, CDK5R1 / RFU, ZRANB3 / Fold change vs veh, ZRANB3 / RFU, CUL4A / Fold change vs veh, CUL4A / RFU, CCNY / Fold change vs veh, CCNY / RFU, UFL1 / Fold change vs veh, UFL1 / RFU, COG3 / Fold change vs veh, COG3 / RFU, DIAPH2 / Fold change vs veh, DIAPH2 / RFU, SKA2 / Fold change vs veh, SKA2 / RFU, AFF3 / Fold change vs veh, AFF3 / RFU, LMF1 / Fold change vs veh, LMF1 / RFU, IPO11 / Fold change vs veh, IPO11 / RFU, DFFB / Fold change vs veh, DFFB / RFU, FOXP1 / Fold change vs veh, FOXP1 / RFU, CARD8 / Fold change vs veh, CARD8 / RFU, STRN3 / Fold change vs veh, STRN3 / RFU, ADK / Fold change vs veh, ADK / RFU, RASSF2 / Fold change vs veh, RASSF2 / RFU, WIPF1 / Fold change vs veh, WIPF1 / RFU, LARP1B / Fold change vs veh, LARP1B / RFU, RASA1 / Fold change vs veh, RASA1 / RFU, RB1 / Fold change vs veh, RB1 / RFU, PPFIA1 / Fold change vs veh, PPFIA1 / RFU, MAT2A / Fold change vs veh, MAT2A / RFU, CCT5 / Fold change vs veh, CCT5 / RFU, WDR92 / Fold change vs veh, WDR92 / RFU, CUX1 / Fold change vs veh, CUX1 / RFU, TTC7A / Fold change vs veh, TTC7A / RFU, TMEM135 / Fold change vs veh, TMEM135 / RFU, DEPTOR / Fold change vs veh, DEPTOR / RFU, CPM / Fold change vs veh, CPM / RFU, DNAJB6 / Fold change vs veh, DNAJB6 / RFU, CACNA2D3 / Fold change vs veh, CACNA2D3 / RFU, DTX4 / Fold change vs veh, DTX4 / RFU, TFCP2 / Fold change vs veh, TFCP2 / RFU, GMCL1 /// GMCL1P1 / Fold change vs veh, GMCL1 /// GMCL1P1 / RFU, AEBP2 / Fold change vs veh, AEBP2 / RFU, SNHG1 /// SNORD22 /// SNORD25 /// SNORD26 /// SNORD27 /// SNORD28 /// SNORD29 /// SNORD31 / Fold change vs veh, SNHG1 /// SNORD22 /// SNORD25 /// SNORD26 /// SNORD27 /// SNORD28 /// SNORD29 /// SNORD31 / Fold change (Aza/veh), C12orf56 (ProbeSet 11735607_a_at) / Fold change (ACY-1035/veh), C12orf56 (ProbeSet 11735607_a_at) / Fold change (Aza/veh), FGFR1OP (ProbeSet 11751329_s_at) / Fold change (ACY-1035/veh), FGFR1OP (ProbeSet 11751329_s_at) / Fold change (Aza/veh), VPS36 (ProbeSet 11739960_a_at) / Fold change (ACY-1035/veh), VPS36 (ProbeSet 11739960_a_at) / RFU SYPL1 (11715823_x_at) / Fold change /veh SYPL1 (11715823_x_at) / RFU IGFBP7 (11715501_s_at) / Fold change /veh IGFBP7 (11715501_s_at) / RFU REEP3 (11722064_at) / Fold change /veh REEP3 (11722064_at) / RFU IGLL1 (11728026_x_at) / Fold change /veh IGLL1 (11728026_x_at): dose or concentration left out as unconfirmed
Conditions: ProbeSet 11720270_a_at; LIST B

SMILES: Nc1ccc(-c2cccs2)cc1NC(=O)c1ccc2c(c1)cc(C1CC1)n2CCN1CCOCC1 [ACY-1035]
- Fold change vs veh, IBTK: 0.91
